These results are taken from patent US8410152B2 (Max-Planck-Gesellschaft zur Forderung der Wissenschaften e. …, priority 2006, dated 2013).

Structures are written as SMILES. Some results are limits rather than exact numbers.

One data set deals with tau construct K19 (Homo sapiens, UniProt P10636). Briefly: Thioflavine S (ThS) assay for aggregation of tau. It counts as biochemical. The settings on record: 10 μM tau construct K19, 2.5 μM heparin, ThS fluorescence; for DC50: read-out: DC50; for IC50: over night at 37° C., read-out: ID50 (the source's name). As for the experimental part:
Thioflavine S (ThS) Assay for aggregation of tau: 10 μM of the tau construct K19 were incubated with compounds in a concentration range from 1 nM up to 200 μM in the presence of 2.5 μM heparin in 50 mM NH4Ac buffer over night at 37° C. After addition of 20 μM ThS the signal was measured at 521 nm (emission) at an excitation wavelength of 440 nm. The results of this assay are presented in the IC50 column and DC50 column of Table 1 below.

Another data set deals with uninduced N2A cells. The class given is cell-based. The settings on record: cell death as percent of LDH released into medium vs total LDH, compound 10 μM. As for the experimental part:
Neurotoxicity assay: Neurotoxicity was assessed using an LDH (lactate dehydrogenase) assay kit (Roche, Mannheim, Germany) according to the manufacturer's specifications. In the viability assay the aggregation inhibitor compound was added at a final concentration of 10 μM to uninduced N2A cells. The activity of LDH was measured spectrophotometrically at 492 nm. Cell death was calculated as percent of LDH released into medium, compared to total LDH obtained after total cell lysis.

tau construct K19, sequence (P10636 with tags, fused parts or gaps isoform P10636-2 limits assumed): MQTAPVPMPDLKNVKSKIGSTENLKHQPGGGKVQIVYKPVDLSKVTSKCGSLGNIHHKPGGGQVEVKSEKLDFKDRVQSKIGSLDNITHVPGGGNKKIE

In the case of `O=C(NNc1nc(-c2ccc(Br)cc2)cs1)c1ccc2[nH]cnc2c1` [Comp. 43, N′-[4-(4-bromophenyl)-1,3-thiazol-2-yl]-1H-benzimidazole-5-carbohydrazide], at tau construct K19, the DC50 came out at 31.7 µM and the IC50 is more than 200 µM. In addition, the LDH in the data set with uninduced N2A cells came out at 11.5%.

For `O=C(NNc1nc(-c2ccccc2)cs1)c1ccc(-c2ccccc2)cc1` [Comp. 37, N′-(4-phenyl-1,3-thiazol-2-yl)-1,1′-biphenyl-4-carbohydrazide], at tau construct K19, the DC50 was more than 200 µM and the IC50 is more than 200 µM. For the same molecule, the LDH in the data set with uninduced N2A cells was found to be 3.6%.

As to `O=C(NNc1nc(-c2ccc(Br)cc2)cs1)c1ccc2ccccc2c1` [Comp. 3, N′-(4-(4-Bromophenyl)thiazol-2-yl)-2-naphthohydrazide], on tau construct K19, the DC50 was 169 µM and the IC50 was more than 200 µM. Also, the LDH in the data set on uninduced N2A cells is on record as 4.2%.

On to `O=C(NNc1nc(-c2ccc(N3CCCC3)cc2)cs1)c1ccc(F)nc1` [Comp. 75, 6-fluoro-N′-[4-(4-pyrrolidin-1-ylphenyl)-1,3-thiazol-2-yl]nicotinohydrazide], for which, on tau construct K19, the DC50 was 44.6 µM and the IC50 worked out at 42.1 µM. The LDH in the data set with uninduced N2A cells is listed as 12.2%.

As to `O=C(NNc1nc(-c2cc3ccccc3o2)cs1)c1ccc(Cl)cc1` [Comp. 26, N′-[4-(1-benzofuran-2-yl)-1,3-thiazol-2-yl]-4-chlorobenzohydrazide], on tau construct K19, the DC50 is 21.3 µM and the IC50 was found to be 47.2 µM. The LDH in the data set on uninduced N2A cells is −0.6%.

Take `O=C(NNc1nc(-c2ccc(Br)cc2)cs1)c1ccco1` [Comp. 28, N′-[4-(4-bromophenyl)-1,3-thiazol-2-yl]-2-furohydrazide]: on tau construct K19, the DC50 amounted to 2 µM and the IC50 was determined as 60.9 µM. In addition, the LDH with uninduced N2A cells was found to be 3.8%.

Take `O=C(NNc1nc(-c2ccc([N+](=O)[O-])cc2)cs1)Nc1ccccc1` [Comp. 6]: at tau construct K19, the DC50 turned out to be 33.5 µM and the IC50 stood at 10.8 µM. Moreover, the LDH in the data set with uninduced N2A cells was 2.1%.

`O=C(NNc1nc(-c2ccc(N3CCCC3)cc2)cs1)c1ccc2ccccc2c1` [Comp. 16, N′-[4-(4-pyrrolidin-1-ylphenyl)-1,3-thiazol-2-yl]-2-naphthohydrazide]: on tau construct K19, the DC50 stood at 1.5 µM and the IC50 is 5.8 µM. The LDH with uninduced N2A cells came out at 15.3%.

As to `O=C(NNc1nc(-c2ccccc2)cs1)c1cccs1` [Comp. 22, N′-(4-phenyl-1,3-thiazol-2-yl)thiophene-2-carbohydrazide], on tau construct K19, the DC50 came to 35.5 µM and the IC50 was determined as 25.3 µM. Besides, the LDH with uninduced N2A cells is recorded as 14.8%.

Turning to `O=C(NNc1nc(-c2cc3ccccc3oc2=O)cs1)c1cccnc1` [Comp. 2, N′-(4-(2-Oxo-2H-chromen-3-yl)thiazol-2-yl)nicotinohydrazide], on tau construct K19, the DC50 was 11.1 µM and the IC50 was 23.2 µM. The LDH with uninduced N2A cells worked out at 15.4%.

As for `COc1cccc(-c2csc(NNC(=O)c3ccncc3)n2)c1` [Comp. 35, N′-[4-(3-methoxyphenyl)-1,3-thiazol-2-yl]isonicotinohydrazide], on tau construct K19, the DC50 was more than 200 µM and the IC50 is more than 200 µM. For the same molecule, the LDH in the data set on uninduced N2A cells is 3.2%.

For `O=C(CCc1ccccc1)NNc1nc(-c2ccc(Br)cc2)cs1` [Comp. 36, N′-[4-(4-bromophenyl)-1,3-thiazol-2-yl]-3-phenylpropanohydrazide], at tau construct K19, the DC50 is more than 200 µM and the IC50 was more than 200 µM. The LDH in the data set with uninduced N2A cells worked out at 3.3%.

For the molecule `O=C(NNc1nc(-c2cccs2)cs1)c1ccc(Cl)cc1` [Comp. 29, 4-chloro-N′-(4-thien-2-yl-1,3-thiazol-2-yl)benzohydrazide], at tau construct K19, the DC50 was more than 200 µM and the IC50 is 146 µM. For the same molecule, in the data set on uninduced N2A cells, the LDH is recorded as 3.8%.

Regarding `O=C(NNc1nc(-c2ccc([N+](=O)[O-])cc2)cs1)c1ccc2ccccc2c1` [Comp. 20, N′-(4-(4-Nitrophenyl)thiazol-2-yl)-2-naphthohydrazide], on tau construct K19, the DC50 came out at 0.4 µM and the IC50 was 13.6 µM. The LDH in the data set on uninduced N2A cells was determined as 18.7%.
